Experimental findings from ChEMBL document CHEMBL1955805, “New aromatase inhibitors from the 3-pyridyl arylether and 1-aryl pyrrolo[2,3-c]pyridine series” (Bioorg Med Chem Lett, 2012) are described below.

Structures are written as SMILES. Some results are limits rather than exact numbers.

For series [1], the target named is T1, aromatase (CYP19) (Homo sapiens, UniProt P11511).
T1 sequence (P11511 whole entry): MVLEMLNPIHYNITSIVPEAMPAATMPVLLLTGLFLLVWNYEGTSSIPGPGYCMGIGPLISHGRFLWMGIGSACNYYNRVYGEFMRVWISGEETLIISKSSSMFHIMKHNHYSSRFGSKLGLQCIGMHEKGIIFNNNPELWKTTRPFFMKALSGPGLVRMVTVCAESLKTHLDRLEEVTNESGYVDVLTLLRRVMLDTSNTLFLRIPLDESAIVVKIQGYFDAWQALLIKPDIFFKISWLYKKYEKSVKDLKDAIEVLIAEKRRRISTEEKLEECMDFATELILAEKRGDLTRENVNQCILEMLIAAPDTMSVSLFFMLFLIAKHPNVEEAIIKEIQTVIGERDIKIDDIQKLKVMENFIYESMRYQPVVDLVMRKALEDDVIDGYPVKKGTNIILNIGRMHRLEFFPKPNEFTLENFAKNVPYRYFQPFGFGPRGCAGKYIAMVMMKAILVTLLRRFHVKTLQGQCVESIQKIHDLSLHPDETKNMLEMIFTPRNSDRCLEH
Description: Inhibition of human aromatase coexpressed with P450 reductase at 1 uM by fluorimetry. The note with it: recombinant human aromatase coexpressed with P450 reductase.

Series [2] concerns the target T2, Aromatase (Homo sapiens, UniProt P11511).
T2 sequence (P11511 whole entry): T1 sequence (P11511 whole entry)
Description: Inhibition of human aromatase coexpressed with P450 reductase by fluorimetry.

For series [3], the species on record is Homo sapiens. Description: Selectivity ratio of IC50 for CYP3A4 to IC50 for human aromatase.
For series [4], the species on record is Homo sapiens. The series is described as follows: Selectivity ratio of IC50 for CYP2C9 to IC50 for human aromatase.
Series [5] is filed under the species Homo sapiens. The series is described as follows: Selectivity ratio of IC50 for CYP2D6 to IC50 for human aromatase.

As a reminder, the inhibition is how much of the control response was suppressed. The term IC50 denotes the midpoint of a concentration-inhibition curve. High values mean lower potency, low ones higher potency.

Consider `N#Cc1ccc(Oc2cccnc2)cc1C#N`, for which the inhibition at 1 µM in series [1] was found to be 27%. Moreover, half-maximal inhibition in series [2] (IC50) was put at 5030 nM.

Regarding `N#Cc1ccc(Oc2cccnc2)cc1Oc1ccccc1`, the inhibition at 1 µM in series [1] was found to be 78%.

For `Ic1ccc(-n2ccc3ccncc32)cc1`, in series [1], the inhibition at 1 µM was found to be 26%.

On to `N#Cc1ccc(Oc2cccnc2)cc1NC1CCCCC1`, for which the inhibition at 1 µM in series [1] was 33%.

On to `N#Cc1ccc(Oc2cccnc2)cc1F`, for which the inhibition at 1 µM in series [1] stood at 15%.

Take `N#Cc1ccc(Oc2cccnc2)cc1NCc1ccccc1`: in series [1], the inhibition at 1 µM turned out to be 58%. Moreover, the IC50 in series [2] amounted to 986 nM.

Turning to `Brc1ccc(-n2ccc3ccncc32)cc1`, the inhibition at 1 µM in series [1] is 56%.

Take `Cc1cc(-n2ccc3ccncc32)ccc1Cl`: the inhibition at 1 µM in series [1] is 96%. Also, in series [2], 59 nM corresponded to half-maximal inhibition (IC50).

For `Clc1ccc(-n2ccc3ccncc32)cc1`, the inhibition at 1 µM in series [1] was 85%. Besides, in series [2], it took 523 nM to reach half-maximal inhibition (IC50).

In the case of `N#Cc1ccc(Oc2cccnc2)c(Oc2cccc(Cl)c2)c1`, the inhibition at 1 µM in series [1] came to 89%. Further, 229 nM corresponded to half-maximal inhibition in series [2] (IC50).

With `N#Cc1ccc(Oc2ccncc2)cc1`, in series [1], the inhibition at 1 µM amounted to 53%.

Turning to `N#Cc1ccc(Oc2cccnc2)c(Oc2cccnc2)c1`, in series [1], the inhibition at 1 µM worked out at 82%.

For the compound `CN1CCN(c2cc(Oc3cccnc3)ccc2C#N)CC1`, the inhibition at 1 µM in series [1] came to 8%.

With `N#Cc1ccc(Oc2cccnc2)cc1Oc1cccnc1`, in series [1], the inhibition at 1 µM is 81%. In series [2], this compound yielded an IC50 of 304 nM.

With `N#Cc1ccc(Oc2cccnc2)c(F)c1`, in series [1], the inhibition at 1 µM stood at 52%.

As for `NC(=O)c1ccc(-n2ccc3ccncc32)cc1`, the inhibition at 1 µM in series [1] stood at 60%.

With `Cc1cc(-n2ccc3ccncc32)ccc1C#N`, in series [1], the inhibition at 1 µM is more than 99%.

As to `N#Cc1ccc(Cn2cncn2)cc1`, in series [1], the inhibition at 1 µM is 88%.

As to `COc1ccc(Oc2cc(Oc3cccnc3)ccc2C#N)cc1`, the inhibition at 1 µM in series [1] stood at 84%.

`N#Cc1ccc(Oc2cccnc2)cc1Oc1cccc(Cl)c1`: the inhibition at 1 µM in series [1] stood at 25%.

On to `N#Cc1ccc(Oc2cccnn2)cc1`, for which, in series [1], the inhibition at 1 µM was determined as 1%.

Turning to `N#Cc1ccc(-n2ccc3ccncc32)cc1`, the inhibition at 1 µM in series [1] worked out at 94%. For the same compound, the IC50 in series [2] amounted to 93 nM. The Ratio IC50 in series [3], in series [4] and in series [5] was more than 200 throughout.

Turning to `N#Cc1ccc(-n2ccc3ccncc32)cc1Oc1ccccc1`, the inhibition at 1 µM in series [1] came to 97%. For the same compound, the IC50 in series [2] is 114 nM.

Consider `N#Cc1ccc(Oc2cccnc2)cc1`, for which, in series [1], the inhibition at 1 µM is 70%. In series [2], this compound displayed an IC50 of 289 nM.
